Source: US9845295B2, “Triphenylethylene compounds and uses thereof” (Purdue Research Foundation, priority 2015, dated 2017)
Values belong to the compound of their own block, whether it stands above or below them.

Key:
[1] = target: T1, recombinant human aromatase (CYP19) (Homo sapiens, UniProt P11511); test: Inhibition of recombinant human aromatase (CYP19) by microsomal incubations (MFC fluorometric substrate); format: biochemical; details: for aromatase percent inhibition: at 50000 nM compound, 50 µM; for times more potent than 7 against aromatase: ratio of IC50 values vs compound 7
T1 construct: purchased BD Biosciences (San Jose, Calif.)
T1 sequence (P11511 1-503): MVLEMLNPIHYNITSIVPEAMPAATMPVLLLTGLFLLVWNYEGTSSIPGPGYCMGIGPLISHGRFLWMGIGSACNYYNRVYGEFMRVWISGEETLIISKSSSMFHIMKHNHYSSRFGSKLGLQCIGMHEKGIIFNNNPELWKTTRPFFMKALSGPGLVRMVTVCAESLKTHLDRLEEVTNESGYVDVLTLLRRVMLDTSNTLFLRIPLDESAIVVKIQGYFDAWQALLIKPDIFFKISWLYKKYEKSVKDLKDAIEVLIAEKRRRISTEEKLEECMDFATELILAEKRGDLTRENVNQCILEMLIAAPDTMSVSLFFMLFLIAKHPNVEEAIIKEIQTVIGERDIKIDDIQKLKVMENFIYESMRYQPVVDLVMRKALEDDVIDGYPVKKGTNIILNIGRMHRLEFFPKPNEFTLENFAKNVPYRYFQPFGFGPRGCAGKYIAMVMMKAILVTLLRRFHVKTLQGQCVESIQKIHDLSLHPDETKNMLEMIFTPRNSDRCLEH
Experimental: Inhibition of Recombinant Human Aromatase (CYP19) by Microsomal Incubations.
All tested samples were dissolved in either methanol or DMSO. […] All the reactions were stopped by adding 0.1 M tris base dissolved in acetonitrile (75 μL). […] The extent of enzyme inhibition was expressed as the percentage of remaining enzyme activity compared to the control.

[2] = target: T2, recombinant human ER-α (Homo sapiens, UniProt P03372); test: Binding affinity for recombinant human ER-α (fluorescence polarization, ES2 displacement); details: for IC50: read-out: binding affinities for ER-α (IC50)
T2 construct: purchased Invitrogen (Carlsbad, Calif.)
T2 sequence (P03372 1-595): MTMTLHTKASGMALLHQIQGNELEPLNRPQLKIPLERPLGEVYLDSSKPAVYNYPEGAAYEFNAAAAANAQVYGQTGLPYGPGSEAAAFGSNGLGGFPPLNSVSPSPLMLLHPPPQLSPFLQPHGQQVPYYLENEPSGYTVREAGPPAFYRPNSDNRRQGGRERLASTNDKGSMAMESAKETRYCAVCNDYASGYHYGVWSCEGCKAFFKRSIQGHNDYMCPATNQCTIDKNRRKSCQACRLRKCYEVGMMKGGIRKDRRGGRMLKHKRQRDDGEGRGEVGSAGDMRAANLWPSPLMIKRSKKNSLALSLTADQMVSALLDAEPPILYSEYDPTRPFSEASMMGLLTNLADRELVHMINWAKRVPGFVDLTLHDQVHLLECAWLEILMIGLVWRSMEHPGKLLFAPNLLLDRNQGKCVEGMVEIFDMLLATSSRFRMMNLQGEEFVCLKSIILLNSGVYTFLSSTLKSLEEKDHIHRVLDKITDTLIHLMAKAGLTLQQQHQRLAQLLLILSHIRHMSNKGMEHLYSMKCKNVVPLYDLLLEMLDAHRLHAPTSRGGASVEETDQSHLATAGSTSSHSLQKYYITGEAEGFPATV
Experimental: (§1) Binding Affinities for Recombinant Human ER-α and ER-β.
(§2) The binding affinities of ER-α and ER-β were determined by measuring the change of polarization value when the fluorescent estrogen ligand, ES2, was displaced by the tested compounds. Experimental procedures were consistent with the protocol provided by Invitrogen. The fluorescent estrogen ligand, ES2, was provided in methanol/water (4:1, v/v) with the concentration of 1800 nM. Recombinant human ER-α and ER-β were provided in buffer (50 mM bis-tris propane, 400 mM KCl, 2 mM DTT, 1 mM EDTA and 10% glycerol), with the concentration of 734 nM and 3800 nM, respectively. All tested samples were dissolved in either methanol or DMSO. The sample solutions (1 pt) were mixed well with 49 pt of ES2 screening buffer (100 mM potassium phosphate, 100 μg/mL BGG and 0.02% NaN3). The ER-α/ES2 complex was prepared with the fluorescent estrogen ligand ES2, human recombinant ER and ES2 screening buffer with the concentrations of 9 nM ES2 and 30 nM ER-α. The ER-β/ES2 complex was prepared with the fluorescent estrogen ligand ES2, human recombinant ER-β and ES2 screening buffer with the concentrations of 9 nM ES2 and 20 nM ER-ft Reactions were initiated by adding ER/ES2 complex (50 μL) to bring the incubation volume to 100 μL and incubated for 2 h avoiding light. […] Excitation-emission wavelengths for fluorescence polarization were […]. The polarization values in the presence of the test competitors were compared with those in control, in which the competitor was replaced with vehicle. The extent of competition was expressed as the percentage of remaining polarization compared to the control.

[3] = target: T3, recombinant human ER-β (Homo sapiens, UniProt Q92731); test: Binding affinity for recombinant human ER-β (fluorescence polarization, ES2 displacement); details: for IC50: read-out: binding affinities for ER-β (IC50); for inhibition at 100 µM: 2 h, at 100000 nM compound, read-out: ER-β percent competition
T3 construct: purchased Invitrogen (Carlsbad, Calif.)
T3 sequence (Q92731 whole entry): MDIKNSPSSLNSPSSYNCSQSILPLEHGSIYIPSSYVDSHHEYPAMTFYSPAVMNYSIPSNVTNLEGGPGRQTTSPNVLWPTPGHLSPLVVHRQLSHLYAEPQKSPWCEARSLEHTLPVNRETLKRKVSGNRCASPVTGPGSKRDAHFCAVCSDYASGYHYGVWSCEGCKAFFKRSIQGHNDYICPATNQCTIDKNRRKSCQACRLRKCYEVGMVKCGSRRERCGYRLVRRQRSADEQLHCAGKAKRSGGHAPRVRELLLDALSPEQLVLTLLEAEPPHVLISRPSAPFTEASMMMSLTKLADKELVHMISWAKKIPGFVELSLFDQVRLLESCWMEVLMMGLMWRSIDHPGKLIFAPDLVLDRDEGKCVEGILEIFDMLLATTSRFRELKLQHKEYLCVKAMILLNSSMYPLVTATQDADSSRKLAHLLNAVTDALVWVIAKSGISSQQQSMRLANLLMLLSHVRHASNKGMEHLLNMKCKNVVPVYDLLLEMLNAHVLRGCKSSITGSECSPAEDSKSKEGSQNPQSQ
Experimental: as §1, §2

[4] = Table 1, mean of at least three experiments
[5] = Table 1, determined only for compounds with >90% competition
[6] = Table 2, determined for compounds with inhibition higher than 90%

SMILES: N#CCC(=C(c1ccc(O)cc1)c1ccc(O)cc1)c1ccccc1 [Compound 11, 4,4-Bis(4-hydroxyphenyl)-3-phenylbut-3-enenitrile]
- IC50 [1, 4]: 12800 nM
- melting point: 198 to 200 °C
- ER-α percent competition ([2]; Table 1, at 100 μM compound): 56% competition

SMILES: Oc1ccc(C(=C(Cn2cncn2)c2ccccc2)c2ccc(O)cc2)cc1 [Compound 13, 4,4′-(2-Phenyl-3-(1H-1,2,4-triazol-1-yl)prop-1-ene-1,1-diyl)diphenol]
- IC50 [1, 4]: 137 nM
- melting point: 143 to 145 °C
- ER-α percent competition ([2]; Table 1, at 100 μM compound): 12% competition

SMILES: N#CCC(=C(c1ccc(O)cc1)c1ccc(O)cc1)c1ccc(O)cc1 [Compound 17a, 3,4,4-Tris(4-hydroxyphenyl)but-3-enenitrile]
- IC50 [1, 4]: 15200 ± 300 nM
- ER-α percent competition ([2]; Table 1, at 100 μM compound): 0% competition

SMILES: N#CCC(=C(c1ccc(O)cc1)c1ccc(O)cc1)c1ccc(O)c(F)c1 [Compound 17b, 3-(3-Fluoro-4-hydroxyphenyl)-4,4-bis(4-hydroxyphenyl)but-3-enenitrile]
- IC50 [1, 4]: 17200 ± 2200 nM
- melting point: 180 to 183 °C
- ER-α percent competition ([2]; Table 1, at 100 μM compound): 0% competition

SMILES: Oc1ccc(C(Cn2ccnc2)=C(c2ccc(O)cc2)c2ccc(O)cc2)cc1 [Compound 18a, 4,4′,4″-(3-(1H-Imidazol-1-yl)prop-1-ene-1,1,2-triyl)triphenol]
- IC50 [1, 4]: 60 ± 4.1 nM
- EC50 [3, 5]: 73.6 ± 29.9 nM
- IC50 [3]: 56.3 to 73.6 nM
- EC50 [2, 5]: 97.8 ± 42.3 nM
- IC50 [2]: 85.2 to 97.8 nM

SMILES: Oc1ccc(C(=C(Cn2ccnc2)c2ccc(O)c(F)c2)c2ccc(O)cc2)cc1 [Compound 18b, 4,4′-(2-(3-Fluoro-4-hydroxyphenyl)-3-(1H-imidazol-1-yl)prop-1-ene-1,1-diyl)diphenol]
- IC50 [1, 4]: 94.4 ± 3.5 nM
- EC50 [3, 5]: 56.3 ± 17.8 nM
- IC50 [3]: 56.3 to 73.6 nM
- EC50 [2, 5]: 85.2 ± 14.2 nM
- IC50 [2]: 85.2 to 97.8 nM

SMILES: Oc1ccc(C(Cn2cncn2)=C(c2ccc(O)cc2)c2ccc(O)cc2)cc1 [Compound 19a, 4,4′,4″-(3-(1H-1,2,4-Triazol-1-yl)prop-1-ene-1,1,2-triyl)triphenol]
- IC50 [1, 4]: 3030 ± 150 nM
- ER-α percent competition ([2]; Table 1, at 100 μM compound): 45% competition

SMILES: Oc1ccc(C(=C(Cn2cncn2)c2ccc(O)c(F)c2)c2ccc(O)cc2)cc1 [Compound 19b, 4,4′-(2-(3-Fluoro-4-hydroxyphenyl)-3-(1H-1,2,4-triazol-1-yl)prop-1-ene-1,1-diyl)diphenol]
- IC50 [1, 4]: 2980 ± 50 nM
- ER-α percent competition ([2]; Table 1, at 100 μM compound): 2% competition

SMILES: Oc1ccc(C(Cn2cnnc2)=C(c2ccc(O)cc2)c2ccc(O)cc2)cc1 [Compound 20a, 4,4′,4″-(3-(4H-1,2,4-Triazol-4-yl)prop-1-ene-1,1,2-triyl)triphenol]
- IC50 [1, 4]: 12500 ± 400 nM
- EC50 [3, 5]: 1080 ± 100 nM
- EC50 [2, 5]: 943 ± 285 nM

SMILES: Oc1ccc(C(=C(Cn2cnnc2)c2ccc(O)c(F)c2)c2ccc(O)cc2)cc1 [Compound 20b, 4,4′-(2-(3-Fluoro-4-hydroxyphenyl)-3-(4H-1,2,4-triazol-4-yl)prop-1-ene-1,1-diyl)diphenol]
- IC50 [1, 4]: 14200 ± 1100 nM
- ER-α percent competition ([2]; Table 1, at 100 μM compound): 0% competition

SMILES: Nc1ccc(C(Cn2ccnc2)=C(c2ccc(O)cc2)c2ccc(O)cc2)cc1 [Compound 26, 4,4′-(2-(4-Aminophenyl)-3-(1H-imidazol-1-yl)prop-1-ene-1,1-diyl)diphenol]
- IC50 [1, 4]: 5.24 ± 0.41 nM
- EC50 [3, 5]: 296 ± 154 nM
- EC50 [2, 5]: 1830 ± 910 nM

SMILES: Nc1ccc(C(Cn2cncn2)=C(c2ccc(O)cc2)c2ccc(O)cc2)cc1 [Compound 27, 4,4′-(2-(4-Aminophenyl)-3-(1H-1,2,4-triazol-1-yl)prop-1-ene-1,1-diyl)diphenol]
- IC50 [1, 4]: 104 ± 9 nM
- ER-α percent competition ([2]; Table 1, at 100 μM compound): 0% competition

SMILES: Nc1ccc(C(Cn2cnnc2)=C(c2ccc(O)cc2)c2ccc(O)cc2)cc1 [Compound 28, 4,4′-(2-(4-Aminophenyl)-3-(4H-1,2,4-triazol-4-yl)prop-1-ene-1,1-diyl)diphenol]
- IC50 [1, 4]: 17.7 ± 1.2 nM
- ER-α percent competition ([2]; Table 1, at 100 μM compound): 13% competition

SMILES: Oc1ccc(C(=C(Cn2ccnc2)c2cccc(O)c2)c2ccc(O)cc2)cc1 [Compound 32, 4,4′-(2-(3-Hydroxyphenyl)-3-(1H-imidazol-1-yl)prop-1-ene-1,1-diyl)diphenol]
- IC50 [1, 4]: 60.4 ± 1.7 nM
- ER-α percent competition ([2]; Table 1, at 100 μM compound): 0% competition

SMILES: Nc1cccc(C(Cn2ccnc2)=C(c2ccc(O)cc2)c2ccc(O)cc2)c1 [Compound 35, 4,4′-(2-(3-Aminophenyl)-3-(1H-imidazol-1-yl)prop-1-ene-1,1-diyl)diphenol]
- IC50 [1, 4]: 439 ± 16 nM
- ER-α percent competition ([2]; Table 1, at 100 μM compound): 60% competition

Next, values leading:

- aromatase percent inhibition ([1]; Table 2): 75 % inhibition
- inhibition at 100 µM ([3]; Table 2): 55%
- ER-α percent competition ([2]; Table 2, at 100000 nM compound): 19% competition
SMILES: CC(=C(c1ccc(O)cc1)c1ccc(O)cc1)c1ccc([N+](=O)[O-])cc1 [Compound 37a, 4-(1-(4-Hydroxyphenyl)-2-(4-nitrophenyl)prop-1-enyl)phenol]

- aromatase percent inhibition ([1]; Table 2): 78 % inhibition
- inhibition at 100 µM ([3]; Table 2): 66%
- ER-α percent competition ([2]; Table 2, at 100000 nM compound): 40% competition
SMILES: CCC(=C(c1ccc(O)cc1)c1ccc(O)cc1)c1ccc([N+](=O)[O-])cc1 [Compound 37b, 4-(1-(4-Hydroxyphenyl)-2-(4-nitrophenyl)but-1-enyl)phenol]

- IC50 [1, 6]: 221 nM
- times more potent than 7 against aromatase [1]: about 113 times
- EC50 ([3]; Table 2): 486 ± 240 nM
- EC50 ([2]; Table 2): 213 ± 53.7 nM
SMILES: CC(=C(c1ccc(N)cc1)c1ccc(N)cc1)c1ccc([N+](=O)[O-])cc1 [Compound 37c, 4-(1-(4-Aminophenyl)-2-(4-nitrophenyl)prop-1-enyl)benzenamine]

- IC50 [1, 6]: 62.2 ± 7.8 nM
- times more potent than 7 against aromatase [1]: ~400 times
- EC50 ([3]; Table 2): 70.8 ± 5.2 nM
- EC50 ([2]; Table 2): 72.1 ± 42.6 nM
SMILES: CCC(=C(c1ccc(N)cc1)c1ccc(N)cc1)c1ccc([N+](=O)[O-])cc1 [Compound 37d, 4-(1-(4-Aminophenyl)-2-(4-nitrophenyl)but-1-enyl)benzenamine]

- IC50 [1, 6]: 230 nM
- EC50 ([3]; Table 2): 857 ± 389 nM
- EC50 ([2]; Table 2): 11000 ± 827 nM
SMILES: CC(=C(c1ccc(O)cc1)c1ccc(O)cc1)c1ccc(N)cc1 [Compound 38a, 4-(2-(4-Aminophenyl)-1-(4-hydroxyphenyl)prop-1-enyl)phenol]

- IC50 [1, 6]: 8.8 nM
- EC50 ([3]; Table 2): 1260 ± 424 nM
- EC50 ([2]; Table 2): 1710 ± 630 nM
SMILES: CCC(=C(c1ccc(O)cc1)c1ccc(O)cc1)c1ccc(N)cc1 [Compound 38b, 4-(2-(4-Aminophenyl)-1-(4-hydroxyphenyl)but-1-enyl)phenol]

- IC50 [1, 6]: 177 ± 20.2 nM
- inhibition at 100 µM ([3]; Table 2): 77%
- ER-α percent competition ([2]; Table 2, at 100000 nM compound): 31% competition
SMILES: CC(=C(c1ccc(N)cc1)c1ccc(N)cc1)c1ccc(N)cc1 [Compound 38c, 4-(1,2-Bis(4-aminophenyl)prop-1-enyl)benzenamine]

- IC50 [1, 6]: 13.4 ± 3 nM
- inhibition at 100 µM ([3]; Table 2): 76%
- ER-α percent competition ([2]; Table 2, at 100000 nM compound): 25% competition
SMILES: CCC(=C(c1ccc(N)cc1)c1ccc(N)cc1)c1ccc(N)cc1 [Compound 38d, 4-(1,2-Bis(4-aminophenyl)but-1-enyl)benzenamine]
